Source: patent US20260184663A1, “INDENE COMPOUNDS, PHARMACEUTICAL COMPOSITIONS THEREOF, AND THEIR THERAPEUTIC APPLICATIONS” (NucMito Pharmaceuticals co. Ltd., priority 2022, published 2026)

How the values were obtained:
Type in all cases: cell-based
SW480 (colon cancer) = test: Antiproliferative activity (CCK-8 cell viability), SW480; settings: Homo sapiens, 72 h, read-out: Antiproliferative activity in cancerous cells, SW480 (inhibition of cell growth); for inhibition at 3.3 µM: Compound concentration: 3.3 μM; for inhibition at 10 µM: Compound concentration: 10 μM
Outline: (§1)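 Growth inhibition graded in bands from percent viability against DMSO vehicle, read as CCK-8 absorbance at 450 nm. Compound tested at 3.3, 10 or 30 μM for 72 h, 37 °C; media contained 10% FBS: DMEM for HepG2/SW480, MEM for HeLa, F-12K for A549.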

HeLa (cervical cancer) = test: Antiproliferative activity (CCK-8 cell viability), HeLa; settings: Homo sapiens, 72 h, read-out: Antiproliferative activity in cancerous cells, HELA (inhibition of cell growth); for inhibition at 3.3 µM: Compound concentration: 3.3 μM; for inhibition at 10 µM: Compound concentration: 10 μM
Outline: as §1

[1] = tested on: B16F10 (malignant melanoma); test: Antiproliferative activity (CCK-8 cell viability), B16F10; settings: Mus musculus, 72 h, read-out: Antiproliferative activity in cancerous cells, B16F10 (inhibition of cell growth); for inhibition at 3.3 µM: B16-F10, Compound concentration: 3.3 μM; for inhibition at 10 µM: B16-F10, Compound concentration: 10 μM
Outline: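 Cell growth inhibition was measured in B16F10 malignant melanoma cells with a Cell Counting Kit-8 viability assay. Cells were maintained in DMEM plus 10% fetal bovine serum, seeded at 2,000-5,000 cells/well in 96-well plates, and treated for 72 h at 37° C. Viability was expressed relative to DMSO-treated vehicle control wells.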

[2] = tested on: MDA-MB-231 (breast cancer); test: Antiproliferative activity (CCK-8 cell viability), MDA-MB-231; settings: Homo sapiens, 72 h, read-out: Antiproliferative activity in cancerous cells, MDA-MB-231 (inhibition of cell growth); for inhibition at 3.3 µM: Compound concentration: 3.3 μM; for inhibition at 10 µM: Compound concentration: 10 μM
Outline: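 Growth inhibition of human MDA-MB-231 breast cancer cells was assessed with a Cell Counting Kit-8. Cells cultured in DMEM plus 10% FBS were seeded at 2,000-5,000 cells/well, treated after attachment, and kept 72 h at 37° C. CCK-8 solution (10 μL) was added for 4 h, and absorbance at 450 nm was compared with DMSO-treated controls.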

[3] = tested on: A431 (epidermoid carcinoma); test: Antiproliferative activity (CCK-8 cell viability), A431; settings: Homo sapiens, 72 h, read-out: Antiproliferative activity in cancerous cells, A431 (inhibition of cell growth); for inhibition at 3.3 µM: A-431, Compound concentration: 3.3 μM; for inhibition at 10 µM: A-431, Compound concentration: 10 μM
Outline: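 This growth inhibition assay used A431 cells maintained in Dulbecco's modified Eagle's medium plus 10% fetal bovine serum. Cells were seeded in 96-well plates, treated with compound for 72 h at 37° C., and then given 10 μL CCK-8 solution. After a further 4 h, absorbance was read at 450 nm.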

HepG2 (liver cancer) = test: Antiproliferative activity (CCK-8 cell viability), HepG2; settings: Homo sapiens, 72 h, read-out: Antiproliferative activity in cancerous cells, HepG2 (inhibition of cell growth); for inhibition at 3.3 µM: Compound concentration: 3.3 μM; for inhibition at 10 µM: Compound concentration: 10 μM
Outline: as §1

[4] = tested on: alpha-smooth muscle actin (α-SMA); test: Inhibition of TGF-β induced expression of alpha-smooth muscle actin (α-SMA) in CFSC cells (western blot); settings: compound at 10 μM, TGF-β (10 ng/mL), 24 hours, band intensity vs TGF-β only
Outline: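 Values are percent reduction of α-SMA band intensity relative to cells given TGF-β alone, quantified by Western blot densitometry with β-actin probed. Compound was applied at 10 μM alongside 10 ng/mL TGF-β to serum-free CFSC cultures for 24 h at 37 °C.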

[5] = tested on: A549 (lung adenocarcinoma); test: Antiproliferative activity (CCK-8 cell viability), A549; settings: Homo sapiens, 72 h, read-out: Antiproliferative activity in cancerous cells, A549 (inhibition of cell growth); for inhibition at 3.3 µM: Compound concentration: 3.3 μM; for inhibition at 10 µM: Compound concentration: 10 μM
Outline: as §1

Structure (SMILES): CC1=C(CC(=O)O)c2ccc(F)c(F)c2/C1=C\c1ccc(Oc2ccc(F)cc2)cc1 [C10, (Z)-2-(6,7-Difluoro-1-(4-(4-fluorophenoxy)benzylidene)-2-methyl-1H-inden-3-yl)acetic acid]
- inhibition at 3.3 µM (SW480 (colon cancer)): < 30%
- inhibition at 10 µM (SW480 (colon cancer)): ≥ 50%
- inhibition at 3.3 µM (HeLa (cervical cancer)): ≥ 50%
- inhibition at 10 µM (HeLa (cervical cancer)): ≥ 50%
- inhibition at 3.3 µM [1]: 30 to 50%
- inhibition at 10 µM [1]: ≥ 50%
- inhibition at 3.3 µM [2]: 30 to 50%
- inhibition at 10 µM [2]: ≥ 50%
- inhibition at 3.3 µM [3]: < 30%
- inhibition at 10 µM [3]: ≥ 50%
- inhibition at 3.3 µM (HepG2 (liver cancer)): 30 to 50%
- inhibition at 10 µM (HepG2 (liver cancer)): 30 to 50%
- inhibition at 10 µM [4]: > 80%
- inhibition at 3.3 µM [5]: < 30%
- inhibition at 10 µM [5]: 30 to 50%

Structure (SMILES): O=C(O)CC1=C(Cc2ccc(C(F)(F)F)cc2)/C(=C/c2ccc(Oc3ccc(F)cc3)cc2)c2ccc(F)cc21 [C11, (Z)-2-(5-Fluoro-1-(4-(4-fluorophenoxy)benzylidene)-2-(4-(trifluoromethyl)-benzyl)-1H-inden-3-yl)acetic acid]
- inhibition at 3.3 µM (SW480 (colon cancer)): ≥ 50%
- inhibition at 10 µM (SW480 (colon cancer)): ≥ 50%
- inhibition at 3.3 µM (HeLa (cervical cancer)): ≥ 50%
- inhibition at 10 µM (HeLa (cervical cancer)): ≥ 50%
- inhibition at 3.3 µM [1]: ≥ 50%
- inhibition at 10 µM [1]: ≥ 50%
- inhibition at 3.3 µM [2]: ≥ 50%
- inhibition at 10 µM [2]: ≥ 50%
- inhibition at 3.3 µM [3]: ≥ 50%
- inhibition at 10 µM [3]: ≥ 50%
- inhibition at 3.3 µM (HepG2 (liver cancer)): ≥ 50%
- inhibition at 10 µM (HepG2 (liver cancer)): ≥ 50%
- inhibition at 10 µM [4]: > 80%
- inhibition at 3.3 µM [5]: ≥ 50%
- inhibition at 10 µM [5]: ≥ 50%

Structure (SMILES): O=C(O)CC1=C(C2CCc3ccc(F)cc32)/C(=C/c2ccc(Oc3ccc(F)cc3)cc2)c2ccc(F)cc21 (stereo not drawn) [C12, (Z)-2-(5′,6-Difluoro-1′-(4-(4-fluorophenoxy)benzylidene)-2,3-dihydro-1H,1′H-[1,2′-biinden]-3′-yl)acetic acid]
- inhibition at 3.3 µM (SW480 (colon cancer)): ≥ 50%
- inhibition at 10 µM (SW480 (colon cancer)): ≥ 50%
- inhibition at 3.3 µM (HeLa (cervical cancer)): ≥ 50%
- inhibition at 10 µM (HeLa (cervical cancer)): ≥ 50%
- inhibition at 3.3 µM [1]: ≥ 50%
- inhibition at 10 µM [1]: ≥ 50%
- inhibition at 3.3 µM [2]: ≥ 50%
- inhibition at 10 µM [2]: ≥ 50%
- inhibition at 3.3 µM [3]: ≥ 50%
- inhibition at 10 µM [3]: ≥ 50%
- inhibition at 3.3 µM (HepG2 (liver cancer)): ≥ 50%
- inhibition at 10 µM (HepG2 (liver cancer)): ≥ 50%
- inhibition at 10 µM [4]: > 80%
- inhibition at 3.3 µM [5]: ≥ 50%
- inhibition at 10 µM [5]: ≥ 50%

Structure (SMILES): O=C(O)CC1=C(Cc2ccc(C(F)(F)F)cc2)/C(=C/c2cccc(Oc3ccccc3)c2)c2ccc(F)cc21 [C13, (Z)-2-(5-Fluoro-1-(3-phenoxybenzylidene)-2-(4-(trifluoromethyl)benzyl)-1H-inden-3-yl)acetic acid]
- inhibition at 3.3 µM (SW480 (colon cancer)): ≥ 50%
- inhibition at 10 µM (SW480 (colon cancer)): ≥ 50%
- inhibition at 3.3 µM (HeLa (cervical cancer)): ≥ 50%
- inhibition at 10 µM (HeLa (cervical cancer)): ≥ 50%
- inhibition at 3.3 µM [1]: ≥ 50%
- inhibition at 10 µM [1]: ≥ 50%
- inhibition at 3.3 µM [2]: ≥ 50%
- inhibition at 10 µM [2]: ≥ 50%
- inhibition at 3.3 µM [3]: ≥ 50%
- inhibition at 10 µM [3]: ≥ 50%
- inhibition at 3.3 µM (HepG2 (liver cancer)): ≥ 50%
- inhibition at 10 µM (HepG2 (liver cancer)): ≥ 50%
- inhibition at 10 µM [4]: > 80%
- inhibition at 3.3 µM [5]: ≥ 50%
- inhibition at 10 µM [5]: ≥ 50%
